Laboratory results taken from patent US7192942B2, “Process for production of crystals of 11μ-benzaldoxim-estra-4,9-diene derivatives, crystals obtained thereby and pharmaceutical preparations containing them” (Schering AG, priority 2002, dated 2007).
Blank lines part the entries; values can stand above or below the molecule they belong to.

How the values were obtained:
[1] = in comparison to RU 486 (mifeprison); cited from earlier work
progesterone receptor = target: T1, progesterone receptor (Homo sapiens, UniProt P06401); conditions: in comparison to RU 486; cited from earlier work
T1 sequence (P06401 1-933): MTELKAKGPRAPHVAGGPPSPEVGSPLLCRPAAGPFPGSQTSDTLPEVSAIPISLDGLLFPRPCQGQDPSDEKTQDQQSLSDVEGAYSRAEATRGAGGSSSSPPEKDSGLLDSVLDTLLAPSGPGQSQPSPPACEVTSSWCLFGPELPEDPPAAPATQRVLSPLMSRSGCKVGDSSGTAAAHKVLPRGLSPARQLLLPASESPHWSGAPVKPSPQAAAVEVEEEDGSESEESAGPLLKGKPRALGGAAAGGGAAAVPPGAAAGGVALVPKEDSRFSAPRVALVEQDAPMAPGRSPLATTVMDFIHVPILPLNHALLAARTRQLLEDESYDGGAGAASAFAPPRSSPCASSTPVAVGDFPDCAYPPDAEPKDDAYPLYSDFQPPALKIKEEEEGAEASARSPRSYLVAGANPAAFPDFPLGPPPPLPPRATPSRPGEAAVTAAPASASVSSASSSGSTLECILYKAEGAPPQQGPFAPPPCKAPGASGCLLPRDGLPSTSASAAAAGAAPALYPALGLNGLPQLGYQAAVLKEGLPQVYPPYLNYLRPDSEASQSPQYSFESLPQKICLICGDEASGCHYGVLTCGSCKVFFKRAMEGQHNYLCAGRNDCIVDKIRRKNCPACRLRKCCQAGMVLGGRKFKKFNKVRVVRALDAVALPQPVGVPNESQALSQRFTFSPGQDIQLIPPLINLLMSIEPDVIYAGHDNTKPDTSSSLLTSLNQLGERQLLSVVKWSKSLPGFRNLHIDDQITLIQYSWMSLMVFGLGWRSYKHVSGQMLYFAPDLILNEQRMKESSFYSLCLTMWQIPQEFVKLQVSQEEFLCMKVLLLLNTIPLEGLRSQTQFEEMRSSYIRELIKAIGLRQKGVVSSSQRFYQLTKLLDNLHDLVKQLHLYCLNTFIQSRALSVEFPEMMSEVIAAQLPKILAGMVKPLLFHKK

[2] = Active ingredient release (dissolution) of 1 mg capsules and tablets; format: physicochemical; conditions: 0.3% SDS in water, paddle, 100 rpm
Procedure: The release values were compared in a test medium, which comprises 0.3% SDS in water, with paddle stirrIng, 100 rpm.
Active Ingredient Release:
Active ingredient release measured in 1000 mL water with 0.3% sodium dodecyl sulfate, 100 rpm
Content Determination by HPLC with external calibration
Column: LiChrosphere 5μ RP-18 encapped, 150×3 mm
Eluent: acetonitrile/water=45/55

[3] = target: T2, progesterone receptor (PR) (Homo sapiens, UniProt P06401); conditions: cited from earlier work
T2 sequence (P06401 1-933): T1 sequence (P06401 1-933)

[4] = Stability of medicinal preparations under ICH conditions; format: physicochemical; conditions: 40° C., 70% relative humidity; decomposition of carbamate to nitrile
Description: The carbamate functional group of the above-mentioned 11β-benz-aldoxim-estra-4,9-diene derivative decomposes to form a nitrile by splitting off ethylamine and CO2.

[5] = 1 mg capsule, microcrystalline J956, particle diameter X50 3.4 μm, X100 25 μm
[6] = 1 mg capsule, microcrystalline J956, particle diameter X50 5.2 μm, X100 30 μm
[7] = 1 mg capsule, microcrystalline J956, particle diameter X50 6.6 μm, X100 43 μm
[8] = 1 mg capsule, microcrystalline J956, particle diameter X50 8.7 μm, X100 43 μm
[9] = 1 mg capsule, microcrystalline J956, particle diameter X50 14.1 μm, X100 87 μm
[10] = 1 mg tablet, microcrystalline J956, particle diameter X50 10.6 μm, X100 73 μm
[11] = 1 mg capsule with micronized effective ingredient J956
[12] = 1 mg tablet with micronized effective ingredient J956

- RELEASE in % 0 min [2, 5]: 0%
- RELEASE in % 10 min [2, 5]: 90.7%
- RELEASE in % 20 min [2, 5]: 97.3%
- RELEASE in % 30 min [2, 5]: 98.1%
- RELEASE in % 45 min [2, 5]: 99.9%
- RELEASE in % 0 min [2, 6]: 0%
- RELEASE in % 10 min [2, 6]: 89.8%
- RELEASE in % 20 min [2, 6]: 93.5%
- RELEASE in % 30 min [2, 6]: 93.4%
- RELEASE in % 45 min [2, 6]: 95.6%
- RELEASE in % 0 min [2, 7]: 0%
- RELEASE in % 10 min [2, 7]: 93.2%
- RELEASE in % 20 min [2, 7]: 95.9%
- RELEASE in % 30 min [2, 7]: 96.7%
- RELEASE in % 45 min [2, 7]: 96.8%
- RELEASE in % 0 min [2, 8]: 0%
- RELEASE in % 10 min [2, 8]: 93.5%
- RELEASE in % 20 min [2, 8]: 96.7%
- RELEASE in % 30 min [2, 8]: 98.5%
- RELEASE in % 45 min [2, 8]: 99.7%
- RELEASE in % 0 min [2, 9]: 0%
- RELEASE in % 10 min [2, 9]: 90.2%
- RELEASE in % 20 min [2, 9]: 95.3%
- RELEASE in % 30 min [2, 9]: 96.0%
- RELEASE in % 45 min [2, 9]: 96.3%
- RELEASE in % 0 min [2, 10]: 0%
- RELEASE in % 10 min [2, 10]: 73.7%
- RELEASE in % 20 min [2, 10]: 90.3%
- RELEASE in % 30 min [2, 10]: 91.85%
- RELEASE in % 45 min [2, 10]: 96.6%
Structure (SMILES): CCNC(=O)ON=Cc1ccc(C2CC3(C)C(CCC3(COC)OC)C3CCC4=CC(=O)CCC4=C23)cc1 (stereo not drawn) [J956, 11β-{4-[(ethylamino-carbonyl)oximinomethyl]phenyl}-17β-methoxy-17α-methoxymethyl-estra-4,9-dien-3-one]
- antiglucocorticoid activity [1]: considerably reduced antiglucocorticoid activity
- activity at the progesterone receptor (progesterone receptor): same activity as RU 486
- activity in vivo at the progesterone receptor (PR) [3]: both agonistic and also antagonistic activity

- stability of effective ingredient in medicinal preparations under ICH [4]: not sufficiently stable
- RELEASE in % 0 min [2, 11]: 0%
- RELEASE in % 10 min [2, 11]: 92.1%
- RELEASE in % 20 min [2, 11]: 94.3%
- RELEASE in % 30 min [2, 11]: 94.6%
- RELEASE in % 45 min [2, 11]: 94.9%
- RELEASE in % 0 min [2, 12]: 0%
- RELEASE in % 10 min [2, 12]: 92.1%
- RELEASE in % 20 min [2, 12]: 94.3%
- RELEASE in % 30 min [2, 12]: 94.6%
- RELEASE in % 45 min [2, 12]: 94.9%
Structure (SMILES): CCNC(=O)O/N=C/c1ccc([C@H]2C[C@@]3(C)[C@@H](CC[C@]3(COC)OC)[C@@H]3CCC4=CC(=O)CCC4=C32)cc1 [Micronizate]
